Laboratory results: ChEMBL document CHEMBL3271949, “Drugs derived from cannabinoids. 3. Sulfur analogs, thiopyranobenzopyrans and thienobenzopyrans” (J Med Chem, 1976)
The source made the active and inactive calls.

What was measured:
[1] = Toxicity in po dosed mouse; assay type: organism-based; settings: in vivo
Mus musculus [2] = assay: Tranquilizer activity in albino BALB/cJ mouse assessed as reduction in footshock-induced fighting behavior at 5 mg/kg, po after 90 mins; assay type: functional; design: scale not given: the % may be the effect or the level left
Canis familiaris [3] = assay: Toxicity in beagle-like dog assessed as reduced reactivity with ataxia observed for 24 hrs at 1 mg/kg, po single dose; assay type: organism-based, Canis lupus familiaris; design: dose 1 mg/kg, route oral; settings: in vivo
Mus musculus [4] = assay: Antidepressant activity in mouse assessed as potentiation of (+/-)-dopa-induced motor responses at 5 mg/kg, po administered 4 hrs before dopa challenge; assay type: functional, organism-based; design: dose 5 mg/kg
Rattus norvegicus [5] = assay: Spontaneous motor activity in Long-Evans rat at 5 mg/kg measured up to 2 hrs relative to control; assay type: functional
Mus musculus [6] = species: Mus musculus; assay: Analgetic activity in mouse by hot-plate test; assay type: functional
Mus musculus [7] = assay: Tranquilizer activity in albino BALB/cJ mouse assessed as reduction in footshock-induced fighting behavior at 10 mg/kg, po after 90 mins; assay type: functional; design: scale not given: the % may be the effect or the level left
Mus musculus [8] = assay: Antinociceptive activity in po dosed mouse assessed as inhibition of acetic acid-induced writhing administered 30 mins before acetic acid challenge measured after 5 to 20 mins; assay type: functional
Felis catus = assay: Sedative-hypnotic activity in po dosed cat assessed as rapid eye movement sleep; assay type: functional, organism-based
Rattus norvegicus [9] = assay: Antihypertensive activity in spontaneous hypertensive rat assessed as reduction of blood pressure at 10 mg/kg, po after 4 hrs; assay type: functional; design: scale not given: the % may be the effect or the level left
Rattus norvegicus [10] = assay: Analgetic activity in po dosed Sprague-Dawley rat assessed as pain threshold after 15 to 90 mins by tail-flick test; assay type: functional
Rattus norvegicus [11] = assay: Antihypertensive activity in spontaneous hypertensive rat assessed as reduction of blood pressure at 10 mg/kg, po after 24 hrs; assay type: functional; design: scale not given: the % may be the effect or the level left
Rattus norvegicus [12] = assay: Antihypertensive activity in spontaneous hypertensive rat assessed as reduction of blood pressure at 10 mg/kg, po after 48 hrs; assay type: functional; design: scale not given: the % may be the effect or the level left
Canis familiaris [13] = assay: Toxicity in beagle-like dog assessed as reduced reactivity with ataxia observed for 24 hrs at 10 mg/kg, po single dose; assay type: organism-based, Canis lupus familiaris; design: dose 10 mg/kg, route oral; settings: in vivo
Rattus norvegicus [14] = assay: Spontaneous motor activity in Long-Evans rat at 10 mg/kg measured up to 2 hrs relative to control; assay type: functional
Canis familiaris [15] = assay: Toxicity in beagle-like dog assessed as reduced reactivity with ataxia observed for 24 hrs at 0.1 mg/kg, po single dose; assay type: organism-based, Canis lupus familiaris; design: dose 0.1 mg/kg, route oral; settings: in vivo

Row | SMILES | LD50 [1] [mg/kg] | Activity (Mus musculus [2]) [%] | Activity (Canis familiaris [3]) | Activity (Mus musculus [4]) | Activity (Rattus norvegicus [5]) [%] | ED50 (Mus musculus [6]) [mg/kg] | Activity (Mus musculus [7]) [%] | ED50 (Mus musculus [8]) [mg/kg] | Activity (Felis catus) | Activity (Rattus norvegicus [9]) [%] | ED50 (Rattus norvegicus [10]) [mg/kg] | Activity (Rattus norvegicus [11]) [%] | Activity (Rattus norvegicus [12]) [%] | Activity (Canis familiaris [13]) | Activity (Rattus norvegicus [14]) [%] | Activity (Canis familiaris [15])
1 | CCCCCC(C)C(C)c1cc(OC(=O)CCCN2CCOCC2)c2c(c1)OC(C)(C)C1=C2CCS1.Cl (stereo unspecified) | > 300 | 1 | Non-toxic | Active | 1 | > 50 | 33 | – | – | – | – | – | – | – | – | –
2 | CCCCCC(C)C(C)c1cc(OC(=O)C(C)CCN2CCOCC2)c2c(c1)OC(C)(C)C1=C2CCCS1.Cl.O (stereo unspecified) | > 300 | – | – | Active | 1 | – | 66 | 22.6 | inactive | – | – | – | – | – | – | –
3 | CCCCCC(C)C(C)c1cc(O)c2c(c1)OC(C)(C)C1=C2CCCS1 (stereo unspecified) [TINABINOL] | > 300 | – | Toxic | Active | 1 | 5.7 | 1 | 8.6 | inactive | 15 | 2.7 | 28 | 19 | – | – | –
4 | CCCCCC(C)C(C)c1cc(O)c2c(c1)OC(C)(C)c1sccc1-2 (stereo unspecified) | > 300 | – | – | Active | 1 | – | 1 | > 10 | – | – | – | – | – | – | – | –
5 | CCCCCC(C)C(C)c1cc(OC(=O)CCCN2CCCCC2)c2c(c1)OC(C)(C)C1=C2CCS1.Cl (stereo unspecified) | > 300 | – | Non-toxic | Active | 1 | – | 33 | 24 | – | – | – | – | – | – | – | –
6 | CCCCCC(C)C(C)c1cc(OC(=O)CCCN2CCCCC2)c2c(c1)OC(C)(C)C1=C2CCCS1.Cl (stereo unspecified) | > 300 | 1 | – | Active | 66 | – | – | 14.7 | – | – | – | – | – | – | – | –
7 | CCCCCC(C)C(C)c1cc(O)c2c(c1)OC(C)(C)C1=C2CSC1 (stereo unspecified) | > 300 | – | – | Active | 1 | > 120 | 33 | 51.7 | – | – | – | – | – | Toxic | – | –
8 | CCCCCC(C)C(C)c1cc(O)c2c(c1)OC(C)(C)C1=C2CCSC1 (stereo unspecified) | > 300 | 1 | – | Active | – | > 40 | – | > 40 | – | – | – | – | – | Toxic | 1 | –
9 | CCCCCC(C)C(C)c1cc(O)c2c(c1)OC(C)(C)C1=C2CCS1 (stereo unspecified) | > 300 | 1 | – | Active | 1 | 12.1 | 33 | 71.8 | Active | 17 | – | 2 | – | – | – | Toxic
